# Entries after “also recorded” stand apart in the source; their conditions may differ.
# Key:
# [1] = test system: sarcoplasmic reticulum of human skeletal muscle fibers (vastus lateralis); assay: Induced tension in isolated human skeletal muscle fiber (sarcolemma removed); format: cell-based; conditions: 25, 50, 100 μM, SR loaded at pCa 7.0 for 3 min
# Method: FIG. 14. Isolated human skeletal muscle fiber from the vastus lateralis (sarcolemmal membrane-free) was exposed to 0.5 mM of CaCl2 to enable maximal muscle tension (Po). The histogram show the effect of LASSBio-294 at concentrations of 25, 50 and 100 μM on induced tension in human fibers. N=6 Calibration: Vertical; 10 mm=20 mg; Horizontal, 10 mm=40 s.
# Isolated muscle fiber from the vastus lateralis was exposed to 0.5 mM of CaCl2 to enable maximal muscle tension.
# [2] = test system: particulate PDE 3; assay: Direct inhibition of particulate PDE 3; format: biochemical; conditions: rabbit heart
# [3] = Toxicity study: body weight after injection; format: in vivo, mice; conditions: vs saline and solvent vehicle controls, 1–15 days of treatment
# Method: b. Rats were weighed before and after treatment with LASSBio 204. […] Six rats were examined in each group, measurements were made after 1–15 days of treatment. […] Mice were injected with LASSBio-294 and their blood examined for cell changes. Experimental groups received 2 or 10 mg/kg of drug. […] Table 4 lists blood chemistry analysis of mice treated with LASSBio-294. Experimental groups received 2 or 10 mg/kg of drug. Controls were saline and solvent. […] The low values of glucose found could be due to an artifact of the technique, glucose being a byproduct of hemolysis. […] General Method
# [4] = test system: isolated dog hearts; assay: Intraventricular and aortic pressure in isolated dog hearts under pre-load (Langendorff's method); conditions: compared to control or wash out
# From the text: Predictive tests can also be performed on isolated hearts of animals. Testing intraventricular and arterial pressure in isolated dog hearts, under pre-load, is an animal model for human congestive heart disease, as is well known in the art. This is called Langendorff's method. It allows examination of therapeutic strategies to treat congestive heart disease. When dog hearts were so tested, LASSBio-294 treated hearts achieved a 50% increase in intraventricular and aortic pressure compared to control or wash out after treatment. […] These tests predict that the invention has utility as a medicament in the treatment of congestive heart failure (Curtis, M. J., (1998) Cardiovasc. Res. 39, 194–21, incorporated expressly by reference herein).
# [5] = test system: dogs; assay: Left intraventricular and arterial pressure in intact anesthetized dogs; format: in vivo, dog; conditions: normal cardiac function, no pre-load, 1 mg kg^−1 min^−1 for 13 min
# Method: FIG. 6. Recording of left intraventricular pressure and arterial pressure in dogs anesthetized and ventilated normally.
# FIG. 6 illustrates a test that measured pressure from the hearts of intact dogs during LASSBio-294 application. Recordings were made of left intraventricular pressure and arterial pressure.
# Dogs were anesthetized and normally ventilated. Recordings were made before and after application of LASSBio-294, 1 mg kg^−1 min^−1 for 13 min.
# [6] = test system: single muscle fiber; assay: Fatigue development in single amphibian muscle fibers under repetitive tetanic stimulation; format: cell-based, frog, rana pipiens
# Method: FIG. 17. Time course of fatigue development. Fatigue was produced by 60 Hz, 0.8 sec tetanic stimulations repeated every 4.75 sec with a twitch elicited 2.2 sec after each tetanic stimulation. a) single tetanus. b) repeated tetanic stimulations. Notice the time calibration. A) In 50 μM of DMSO only B) Same as in A, but the fiber was bathed with 50 μM of compound LASSBio-294.
# FIG. 28. Time (in min) for tetanic force to decrease (fatigue) to 50% of the original tetanic force during repetitive stimulations as in FIG. 17. Left column in 50 μM of DMSO only (˜6 in). Right column in 50 μM of LASSBio-294 (˜9 min).
# FIG. 29. Time of recovery to 80% of the pre-fatigue tetanic force. Left column in 50 μM of DMSO only (˜90 min). Right column in 50 μM of LASSBio-294 (˜10 min).
# c. […] A is 50 μM DMSO in Ringer's solution, B is 50 μM LASSBio-294. The time to fatigue in LASSBio-294-treated is approximately 50% longer than control.
# The tests in amphibians were performed in isolated single muscle cells freshly isolated from either the semitendinous or the tibialis anterior muscles of the frog, rana pipiens. The isolated muscle cells were left resting for at least half an hour in Ringer's solution. The fibers were then stimulated with single, low-voltage, electric shocks. If fibers gave brisk twitches and had no signs of membrane damage, they were used. Otherwise, they were discarded. Healthy fibers were transferred to the experimental chamber, which consisted of a 0.3 ml narrow channel where the solutions could be changed several times within five seconds. One tendon of the fiber was gripped with a small clamp and the other tendon was attached to a hook of an Ekhart;s type force transducer. The stimulating electrode consisted of platinum wires placed to each side of the fiber. The muscle fibers were stretched 1.3 times their slack length to reach approximately an average sarcomere length of 1.6 μm.
# The fibers were stimulated with single electric pulses of 0.5 msec duration and variable voltage. The voltage was increased until the threshold for contraction was reached. […]
structure (smiles),measurement,setting,value
"O=C(NN=Cc1cccs1)c1ccc2c(c1)OCO2 [LASSBio-294, 3,4-methylenedioxybenzoyl-2-thienylhydrazone]",release of Ca^2+ from the sarcoplasmic reticulum / induced tension,[1],induces the release of Ca^2+; also recorded: evoked a contraction
same,direct inhibition of particulate PDE 3,[2],did not inhibit directly
same,body weight,[3],unaffected
same,body weight,[3]; listed as LASSBio294,no change in weight
same,increase in intraventricular and aortic pressure,[4],50%
same,left intraventricular pressure and arterial pressure,[5],no change in pressure
same,"time to fatigue, longer than control","[6]; 50 μM vs 50 μM DMSO, 60 Hz 0.8 sec tetanic stimulations",approximately 50%
same,time for tetanic force to decrease (fatigue) to 50% of the original tetanic force,"[6]; 50 μM, repetitive stimulations",~9 min
same,resistance to muscle fatigue,[6]; treated skeletal muscle fibers vs control fibers,increased resistance to muscle fatigue
